According to patent US8759377B2, “Substituted dioxopiperidines and dioxopyrrolidines as MGLUR4 allosteric potentiators, compositions, and methods of treating neurological dysfunction” (Vanderbilt University, priority 2009, dated 2014):
Read-outs that look alike come from different tables or passages of the source.

Legend:
[1] = molecular target: T1, human mGluR4 (Homo sapiens, UniProt Q14833); experiment: human mGluR4 potentiation, Ca2+-sensitive dye fluorescence assay in transfected CHO cells; type: cell-based; conditions: for Emax: CHO, maximum extent of potentiation, human mGluR4, read-out: hGluMax; for EC50: EC50 for potentiation, human mGluR4, with EC20 concentration of agonist, read-out: hEC50
T1 construct: expressed in transfected cells; host or cells: CHO cells
Protocol: (§1) The disclosed compounds and compositions can be evaluated for their ability to act as a potentiator of metabotropic glutamate receptor activity, in particular mGluR4 activity, by any suitable known methodology known in the art. For example, Chinese Hamster Ovary (CHO) cells transfected with human mGluR4 or HEK cells co-transfected with rat mGluR4 and the G-protein regulated Inwardly Rectifying Potassium channel (GIRK) were plated in clear bottom assay plates for assay in a Hamamatsu FDSS Fluorometric Plate Reader. The cells were loaded with either a Ca2+-sensitive fluorescent dye or the thallium responsive dye and the plates were washed and placed into a suitable kinetic plate reader. […] Approximately two and a half minutes later, a concentration of mGluR4 orthosteric agonist (e.g. glutamate or L-AP4) eliciting approximately 20% (EC20) of the maximal agonist response was added to the cells, and the response was measured. Two minutes later, a concentration of mGluR4 agonist (e.g. glutamate or L-AP4) eliciting 80% (EC80) of the maximal agonist response was added to the cells, and the response was measured. For rat mGluR4/GIRK experiments, a baseline was established for approximately five seconds, disclosed compounds were added, and either an EC20 or EC80 concentration of agonist was added approximately two and one half minutes later.
(§2) The above described assay operated in two modes. In the first mode, a range of concentrations of the disclosed compounds are added to cells, followed by a single fixed concentration of agonist. If the compound acts as a potentiatior, an EC50 value for potentiation and a maximum extent of potentiation by the compound at this concentration of agonist is determined by non-linear curve fitting. If the compound acts as a noncompetitive antagonist, an IC50 value is determined by non-linear curve fitting. In the second mode, several fixed concentrations of the disclosed compounds are added to various wells on a plate, followed by a range in concentrations of agonist for each concentration of disclosed compound. The ECso values for the agonist at each concentration of compound are determined by non-linear curve fitting. A decrease in the EC50 value of the agonist with increasing concentrations of the sample compound (a leftward shift of the agonist concentration-response curve) is an indication of the degree of mGluR4 potentiation at a given concentration of the sample compound. A decrease in the maximal response of the agonist with increasing concentrations of the sample compounds, with or without a rightward shift in agonist potency, is an indication of the degree of noncompetitive antagonism at mGluR4. The second mode also indicates whether the sample compounds also affect the maximum response to mGluR4 to agonists.

[2] = molecular target: T2, rat mGluR4 (Rattus norvegicus, UniProt P31423); experiment: rat mGluR4/GIRK potentiation, thallium responsive dye assay in co-transfected HEK cells; type: cell-based; conditions: for rGluMax: maximum extent of potentiation
T2 construct: expressed in transfected cells; host or cells: HEK cells
Protocol: as §1, §2

T2 sequence (P31423 33-912): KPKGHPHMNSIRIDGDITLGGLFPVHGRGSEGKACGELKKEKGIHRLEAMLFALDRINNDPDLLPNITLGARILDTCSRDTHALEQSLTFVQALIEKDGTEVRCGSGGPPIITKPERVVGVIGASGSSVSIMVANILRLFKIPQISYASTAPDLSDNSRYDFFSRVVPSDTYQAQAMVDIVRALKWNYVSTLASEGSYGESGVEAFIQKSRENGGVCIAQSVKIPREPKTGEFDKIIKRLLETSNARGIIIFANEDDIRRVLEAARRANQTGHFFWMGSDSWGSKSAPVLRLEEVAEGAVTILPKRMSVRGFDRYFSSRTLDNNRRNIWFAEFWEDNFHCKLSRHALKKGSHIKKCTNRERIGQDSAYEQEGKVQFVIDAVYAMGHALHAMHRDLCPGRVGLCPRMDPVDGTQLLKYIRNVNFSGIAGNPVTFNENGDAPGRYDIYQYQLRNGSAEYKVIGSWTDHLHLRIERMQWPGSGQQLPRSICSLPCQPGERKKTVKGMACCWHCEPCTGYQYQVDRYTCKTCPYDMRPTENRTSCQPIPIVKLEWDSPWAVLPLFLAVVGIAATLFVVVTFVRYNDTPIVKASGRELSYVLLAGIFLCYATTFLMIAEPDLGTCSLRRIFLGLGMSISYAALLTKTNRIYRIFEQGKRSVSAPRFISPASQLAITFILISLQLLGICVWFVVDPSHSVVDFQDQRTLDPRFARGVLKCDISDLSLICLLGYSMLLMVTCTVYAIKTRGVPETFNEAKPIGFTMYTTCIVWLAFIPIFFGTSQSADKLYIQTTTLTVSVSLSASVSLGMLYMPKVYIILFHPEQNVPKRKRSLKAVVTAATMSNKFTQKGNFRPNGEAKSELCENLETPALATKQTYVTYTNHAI
T1 sequence (Q14833 33-912): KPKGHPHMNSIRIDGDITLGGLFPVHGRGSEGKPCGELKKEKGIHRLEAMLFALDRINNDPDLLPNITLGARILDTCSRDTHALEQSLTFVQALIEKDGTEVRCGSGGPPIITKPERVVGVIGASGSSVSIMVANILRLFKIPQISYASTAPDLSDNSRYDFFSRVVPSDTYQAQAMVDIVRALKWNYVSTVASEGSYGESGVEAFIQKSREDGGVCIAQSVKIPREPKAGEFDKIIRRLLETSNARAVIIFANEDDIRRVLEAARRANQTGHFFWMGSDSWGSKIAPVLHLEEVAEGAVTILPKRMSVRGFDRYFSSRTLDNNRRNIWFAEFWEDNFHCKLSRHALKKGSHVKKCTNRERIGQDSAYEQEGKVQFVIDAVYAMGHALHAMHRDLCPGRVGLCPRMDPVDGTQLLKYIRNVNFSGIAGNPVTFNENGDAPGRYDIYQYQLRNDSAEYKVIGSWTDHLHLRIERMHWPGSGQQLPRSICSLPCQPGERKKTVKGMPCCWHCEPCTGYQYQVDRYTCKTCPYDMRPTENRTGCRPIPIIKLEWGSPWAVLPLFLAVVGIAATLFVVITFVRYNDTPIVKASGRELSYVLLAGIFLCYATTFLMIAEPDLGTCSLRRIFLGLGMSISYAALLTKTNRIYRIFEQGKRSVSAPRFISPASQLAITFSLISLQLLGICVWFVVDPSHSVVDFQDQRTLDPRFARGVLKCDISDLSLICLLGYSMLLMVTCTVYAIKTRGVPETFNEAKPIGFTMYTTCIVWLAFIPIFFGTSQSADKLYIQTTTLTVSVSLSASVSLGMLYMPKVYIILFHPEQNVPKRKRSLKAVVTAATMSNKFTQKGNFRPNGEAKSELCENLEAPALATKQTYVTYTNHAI

Emax [1] | rGluMax ([2]; rat mGluR4/GIRK) | EC50 [1] | EC50 ([2]; EC50 for potentiation, rat mGluR4/GIRK, with EC20 concentration of agonist, read-out: rEC50) | Structure (SMILES) | EC50 [2]
222% | – | – | – | O=C(Nc1ccc(N2C(=O)[C@@H]3[C@H](C2=O)[C@@H]2C=C[C@H]3CC2)c(Cl)c1)c1ccccn1 [Example 1] | –
211% | 110.2 | – | – | O=C(Nc1ccc(N2C(=O)C3[C@H]4C=C[C@H](C4)[C@H]3C2=O)c(Cl)c1)c1ccccn1 (some centres unmarked) [Example 2] | –
88% | – | 329 nM | – | O=C(Nc1ccc(N2C(=O)CC(Cc3ccccc3Cl)(c3ccccc3)C2=O)c(Cl)c1)c1ccccn1 (centres unmarked) [Example 4, N-(3-chloro-4-(3-(2-chlorobenzyl)-2,5-dioxo-3-phenylpyrrolidin-1-yl)phenyl)picolinamide] | –
155% | – | 1810 nM | – | CC1(C)CC(=O)N(c2ccc(NC(=O)c3ccccn3)cc2Cl)C1=O [Example 5, N-(3-chloro-4-(3,3-dimethyl-2,5-dioxopyrrolidin-1-yl)phenyl)picolinamide] | –
245% | – | – | – | CC1(c2ccccc2)CC(=O)N(c2ccc(NC(=O)c3ccccn3)cc2Cl)C1=O (centres unmarked) [Example 6, N-(3-chloro-4-(3-methyl-2,5-dioxo-3-phenylpyrrolidin-1-yl)phenyl)picolinamide] | –
209% | – | 1950 nM | – | O=C(Nc1ccc(N2C(=O)[C@H]3CC[C@H](c4ccccc4)C[C@H]3C2=O)c(Cl)c1)c1ccccn1 [Example 7] | –
189% | 123.3 | – | 680 nM | O=C(Nc1ccc(N2C(=O)[C@@H]3CCCC[C@H]3C2=O)c(Cl)c1)c1ccccn1 [Example 8, N-(3-chloro-4-((3aR,7aR)-1,3-dioxo-1H-isoindol-2(3H,3aH,4H,5H,6H,7H,7aH)-yl)phenyl)picolinamide] | –
116% | – | – | – | O=C(Nc1ccc(N2C(=O)[C@H]3CCCC[C@H]3C2=O)c(Cl)c1)c1ccccn1 [Example 9, N-(3-chloro-4-((3aR,7aS)-1,3-dioxo-1H-isoindol-2(3H,3aH,4H,5H,6H,7H,7aH)-yl)phenyl)picolinamide] | –
215% | – | 574 nM | – | CC1CCC2C(=O)N(c3ccc(NC(=O)c4ccccn4)cc3Cl)C(=O)C2C1 (centres unmarked) [Example 10, N-(3-chloro-4-(5-methyl-1,3-dioxo-1H-isoindol-2(3H,3 aH,4H,5H,6H,7H,7aH)-yl)phenyl)picolinamide] | –
64% | – | 1140 nM | – | O=C(Nc1ccc(N2C(=O)[C@H](c3ccccc3)[C@H](c3ccccc3)C2=O)c(Cl)c1)c1ccccn1 [Example 11, N-(3-chloro-4-((3R,4S)-2,5-dioxo-3,4-diphenylpyrrolidin-1-yl)phenyl)picolinamide] | –
276% | – | 254 nM | – | O=C(Nc1ccc(N2C(=O)C3=C(C2=O)c2ccccc2CC3)c(Cl)c1)c1ccccn1 [Example 12, N-(3-chloro-4-(1,3-dioxo-4,5-dihydro-1H-benzo[e]isoindol-2(3H)-yl)phenyl)picolinamide] | –
256% | – | 118 nM | – | O=C(Nc1ccc(N2C(=O)Cc3ccccc3C2=O)c(Cl)c1)c1ccccn1 [Example 13, N-(3-chloro-4-(1,3-dioxo-3,4-dihydroisoquinolin-2(1H)-yl)phenyl)picolinamide] | –
193% | – | 163 nM | – | O=C(Nc1ccc(N2C(=O)CC3(CCCCC3)CC2=O)c(Cl)c1)c1ccccn1 [Example 14, N-(3-chloro-4-(2,4-dioxo-3-azaspiro[5.5]undecan-3-yl)phenyl)picolinamide] | –
139% | 86.1 | – | – | O=C(Nc1ccc(N2C(=O)CC3(CCCCC3)C2=O)c(Cl)c1)c1ccccn1 [Example 15, N-(3-chloro-4-(1,3-dioxo-2-azaspiro[4.5]decan-2-yl)phenyl)picolinamide] | –
119% | – | 5940 nM | – | O=C(Nc1ccc(N2C(=O)CCC2=O)c(Cl)c1)c1ccccn1 [Example 16, N-(3-chloro-4-(2,5-dioxopyrrolidin-1-yl)phenyl)picolinamide] | –
40% | – | 3130 nM | – | O=C(Nc1ccc(N2C(=O)CCC2=O)c(Cl)c1)c1cccc(F)n1 [Example 17, N-(3-chloro-4-(2,5-dioxopyrrolidin-1-yl)phenyl)-6-fluoropicolinamide] | –
37% | – | 2550 nM | – | O=C(Nc1ccc(N2C(=O)CCC2=O)c(Cl)c1)c1cccc(Cl)n1 [Example 18, 6-Chloro-N-(3-chloro-4-(2,5-dioxopyrrolidin-1-yl)phenyl)picolinamide] | –
46% | – | 10000 nM | – | O=C(Nc1ccc(N2C(=O)CCC2=O)c(Cl)c1)c1ccncn1 [Example 19, N-(3-chloro-4-(2,5-dioxopyrrolidin-1-yl)phenyl) pyrimidine-4-carboxamide] | –
69% | – | 7730 nM | – | O=C(Nc1ccc(N2C(=O)CCC2=O)c(Cl)c1)c1nccs1 [Example 20, N-(3-chloro-4-(2,5-dioxopyrrolidin-1-yl)phenyl)thiazole-2-carboxamide] | –
62% | – | 8660 nM | – | O=C(Nc1ccc(N2C(=O)CCC2=O)c(Cl)c1)c1cscn1 [Example 21, N-(3-chloro-4-(2,5-dioxopyrrolidin-1-yl)phenyl)thiazole-4-carboxamide] | –

Structure (SMILES) | Emax [1] | rGluMax ([2]; rat mGluR4/GIRK) | EC50 [1] | EC50 ([2]; EC50 for potentiation, rat mGluR4/GIRK, with EC20 concentration of agonist, read-out: rEC50) | EC50 [2]
O=C(Nc1ccc(N2C(=O)CC(c3ccccc3)C2=O)c(Cl)c1)c1ccccn1 (centres unmarked) [Example 3, N-(3-chloro-4-(2,5-dioxo-3-phenylpyrrolidin-1-yl)phenyl)picolinamide] | 219% | 128.7 | – | – | 690 nM
